Data: PMC2570929 (Emerging Infectious Diseases, 2008)
“Also recorded” adds a separate entry of the source. Where two headings read alike, the source gives them in different places.

How the values were obtained:
in vitro = details: human
[1] = tested on: poliovirus Sabin strain 3 (PV3); experiment: microbe, parasite or virus in culture; format: cell-based; details: Enterovirus C, HeLa, 72 h, read-out: EC50 PV3
[2] = tested on: poliovirus Sabin strain 2 (PV2); experiment: microbe, parasite or virus in culture; format: cell-based; details: Enterovirus C, HeLa, 72 h, read-out: EC50 PV2
[3] = tested on: poliovirus Sabin strains 1, 2, and 3; experiment: microbe, parasite or virus in culture; format: cell-based; details: for EC50: Enterovirus C, read-out: EC50
[4] = tested on: poliovirus Sabin strain 1 (PV1); experiment: microbe, parasite or virus in culture; format: cell-based; details: for EC50: Enterovirus C, HeLa, 72 h, read-out: EC50 PV1
[5] = in vivo; cited from earlier work
[6] = cited from earlier work
poliovirus 1 Sabin = format: cell-based
PV = details: in vivo; cited from earlier work

SMILES | CC50 (in vitro) [µM] | EC50 [1] [µM] | EC50 [2] [µM] | EC50 [3] [µM] | EC50 [4] [µM] | other results
C[C@@]1(O)[C@H](O)[C@@H](CO)O[C@H]1n1cnc2c(N)ncnc21 [2'-C-methyladenosine, 2′-C-methyladenosine] | 84 | 5.4 ± 0.4 | 5.6 ± 0.1 | ~5 | 5.5 | 
C[C@@]1(O)[C@H](O)[C@@H](CO)O[C@H]1n1ccc(N)nc1=O [2'-C-methylcytidine, 2′-C-methylcytidine] | > 100 | 3.9 ± 2.3 | 29 ± 27 | 3.9 to 29 | 15 ± 18 | 
[N-]=[N+]=N[C@]1(CO)O[C@@H](n2ccc(N)nc2=O)[C@H](O)[C@@H]1O [4’-azidocytidine, 4′-azidocytidine] | > 100 | > 100 | > 100 |  | > 100 | anti-PV activity [3]: inactive; also recorded: devoid of anti-PV activity
C#CCC(C(=O)NC(C=CC(=O)OCC)CC1CCNC1=O)n1cccc(NC(=O)c2cc(C)on2)c1=O (stereo not shown) [Compound 1] | > 100 |  |  | < 1 | 0.26 ± 0.24 | cytotoxicity (HeLa cells (ATCC CCL-2)): without any signs of cytotoxicity; oral bioavailability [5]: excellent
CC(C)S(=O)(=O)n1c(N)nc2ccc(/C(=N/O)c3ccccc3)cc21 [Enviroxime] | 58 ± 6 | 0.035 ± 0.029 | 0.056 ± 0.02 | 0.035 to 0.2 | 0.2 ± 0.25 | activity in vivo [6]: weak to moderate; toxicity in vivo [6]: toxicity
OC(c1ccccc1)c1nc2ccccc2[nH]1 (stereo not drawn) [HBB, 2-(α-hydroxybenzyl)-benzimidazole] | > 400 | 295 ± 88 | 225 ± 128 | 200 to 300 | 300 ± 68 | 
N#Cc1cc([N+](=O)[O-])ccc1Oc1ccc(Cl)c(Cl)c1 [MDL-860, 2-(3,4-dichlorophenoxy)-5-nitrobenzonitrile] | > 100 | 2.2 ± 1.5 | 3.6 ± 2.2 |  | 6 ± 1.6 | 
N=c1ccn(Cc2nc3ccccc3n2-c2ccc(F)cc2)cc1 [MRL-1237] | > 100 | 3.8 ± 2.5 | 4.6 ± 1.4 |  | 5.3 ± 0.3 | 
CCOC(=O)c1ccc(OCCC2CCN(c3ccc(C)nn3)CC2)cc1 [Pirodavir (R77975)] | > 100 | 0.56 ± 0.03 | 1.7 ± 0.1 |  | 10 ± 1 | metabolic stability after oral administration [5]: metabolic instability; EC50 ([3]; HeLa): < 2 µM
CCOC(=O)c1ccc(OCCCC2CCN(c3ccc(C)nn3)CC2)cc1 [Pirodavir analog (R78206)] | 27 ± 34 | 0.11 ± 0.1 | 0.22 ± 0.19 |  | 0.76 ± 0.18 | EC50 ([3]; HeLa): < 2 µM; Inhibitory activity against PV1 [4]: exhibited inhibitory activity
Cc1cc(CCCOc2c(C)cc(-c3noc(C(F)(F)F)n3)cc2C)on1 [Pleconaril] | 66 ± 6 | 0.22 ± 0.15 | 1.1 ± 0.6 |  | > 100 | reduction of infectious virus yield (poliovirus 1 Sabin): not able to reduce infectious virus yield; benefit of treatment in a persistently infected person (PV): no benefit; virus excretion in a child persistently infected with PV (PV): effective in stopping virus excretion; EC50 ([3]; HeLa): < 2 µM; Inhibitory activity against PV1 [4]: inactive
NC(=O)c1ncn([C@@H]2O[C@H](CO)[C@@H](O)[C@H]2O)n1 [Ribavirin] | > 100 | 55 ± 7 | 64 ± 4 | 50 to 60 | 57 ± 13 | 
CCOC(=O)/C=C/[C@H](C[C@@H]1CCNC1=O)NC(=O)[C@@H](CC(=O)[C@@H](NC(=O)c1cc(C)on1)C(C)C)Cc1ccc(F)cc1 [Rupintrivir] | > 100 | 0.0052 ± 0.0046 | 0.041 ± 0.024 |  | 0.022 ± 0.028 | decrease of infectious virus production (poliovirus 1 Sabin): 6 log10; reduction of virus progeny formation (poliovirus 1 Sabin): 10–1,000 fold; cytotoxicity (HeLa cells (ATCC CCL-2)): without any signs of cytotoxicity
